Assays:
Integrin alpha-4/beta-1 [1] = biological target: T1, Integrin alpha-4/beta-1 (Homo sapiens, UniProt P05556+P13612); experiment: Inhibition of alpha4-beta1 (very late) antigen binding with VCAM-1 immunoglobulin plus 5% human plasma; type: cell-free
[2] = Oral bioavailability; type: ADME, organism-based; settings: eutheria, in vivo
Integrin alpha-4/beta-1 [3] = biological target: T1, Integrin alpha-4/beta-1; experiment: Inhibition of alpha4-beta1 (very late) antigen binding with VCAM-1 immunoglobulin; type: protein-complex assay
Integrin alpha-4/beta-7 [4] = biological target: T2, Integrin alpha-4/beta-7 (Homo sapiens, UniProt P13612+P26010); experiment: Inhibition of alpha4-beta7 antigen with MAdCAM immunoglobulin; type: protein-complex assay
T2 sequence (P13612 whole entry): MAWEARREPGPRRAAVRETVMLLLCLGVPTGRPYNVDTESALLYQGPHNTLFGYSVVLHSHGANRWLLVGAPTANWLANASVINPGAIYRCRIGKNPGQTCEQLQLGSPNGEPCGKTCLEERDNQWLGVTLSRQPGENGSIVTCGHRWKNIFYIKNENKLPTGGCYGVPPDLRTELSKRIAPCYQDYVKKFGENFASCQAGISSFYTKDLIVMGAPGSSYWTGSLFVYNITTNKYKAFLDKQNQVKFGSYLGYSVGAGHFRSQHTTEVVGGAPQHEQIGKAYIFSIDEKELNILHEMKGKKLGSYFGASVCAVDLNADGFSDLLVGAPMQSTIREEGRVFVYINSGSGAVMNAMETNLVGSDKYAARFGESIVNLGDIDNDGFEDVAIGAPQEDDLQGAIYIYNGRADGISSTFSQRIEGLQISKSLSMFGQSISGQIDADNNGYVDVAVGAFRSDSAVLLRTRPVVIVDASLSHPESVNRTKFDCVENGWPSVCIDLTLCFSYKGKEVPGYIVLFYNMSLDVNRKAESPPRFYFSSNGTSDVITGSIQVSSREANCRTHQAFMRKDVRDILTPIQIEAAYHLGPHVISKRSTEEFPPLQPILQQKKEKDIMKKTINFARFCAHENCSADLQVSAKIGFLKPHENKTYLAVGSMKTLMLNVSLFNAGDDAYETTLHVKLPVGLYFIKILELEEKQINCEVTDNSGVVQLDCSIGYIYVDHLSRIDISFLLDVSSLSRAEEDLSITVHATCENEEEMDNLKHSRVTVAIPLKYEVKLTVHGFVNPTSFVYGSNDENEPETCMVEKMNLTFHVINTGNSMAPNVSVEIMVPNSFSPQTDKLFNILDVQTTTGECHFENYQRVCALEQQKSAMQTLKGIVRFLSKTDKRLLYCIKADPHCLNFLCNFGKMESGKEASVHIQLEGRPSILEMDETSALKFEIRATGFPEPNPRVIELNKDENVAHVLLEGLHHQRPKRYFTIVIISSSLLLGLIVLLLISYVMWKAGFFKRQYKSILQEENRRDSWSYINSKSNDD
T2 sequence (P26010 whole entry): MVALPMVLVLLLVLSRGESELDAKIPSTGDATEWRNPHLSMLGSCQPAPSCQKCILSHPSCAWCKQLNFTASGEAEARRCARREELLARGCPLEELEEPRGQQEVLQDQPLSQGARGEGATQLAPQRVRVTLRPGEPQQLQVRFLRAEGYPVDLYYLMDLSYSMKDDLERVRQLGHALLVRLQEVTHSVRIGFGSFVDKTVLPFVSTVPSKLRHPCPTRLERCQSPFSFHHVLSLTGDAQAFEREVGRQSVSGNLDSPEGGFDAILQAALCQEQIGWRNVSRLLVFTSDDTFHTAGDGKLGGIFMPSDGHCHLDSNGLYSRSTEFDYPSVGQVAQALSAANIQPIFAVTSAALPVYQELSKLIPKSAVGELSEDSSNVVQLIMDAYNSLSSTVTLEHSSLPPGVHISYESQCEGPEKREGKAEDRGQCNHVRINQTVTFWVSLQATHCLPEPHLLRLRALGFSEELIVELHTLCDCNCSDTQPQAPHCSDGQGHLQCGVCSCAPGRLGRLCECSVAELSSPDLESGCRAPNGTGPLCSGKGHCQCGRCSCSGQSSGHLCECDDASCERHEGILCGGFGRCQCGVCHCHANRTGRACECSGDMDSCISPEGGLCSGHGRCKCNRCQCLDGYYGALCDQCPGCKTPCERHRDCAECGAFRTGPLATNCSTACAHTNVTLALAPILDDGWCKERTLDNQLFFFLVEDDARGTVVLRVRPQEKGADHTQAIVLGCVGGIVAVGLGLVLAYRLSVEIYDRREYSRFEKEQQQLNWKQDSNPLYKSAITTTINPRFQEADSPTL

[5] = biological target: Integrin alpha-4/beta-7 (Homo sapiens) (UniProt P13612+P26010); experiment: Selectivity for alpha4-beta7 to that of alpha4-beta1; type: protein-complex assay
[6] = Plasma clearance determined; type: ADME, organism-based; settings: read-out: Clp
[7] = Selectivity for alpha4-beta7 over alpha4-beta1 integrins
Integrin alpha-4/beta-7 [8] = biological target: T2, Integrin alpha-4/beta-7; experiment: Inhibition of alpha4-beta7 integrin binding to MAdCAM immunoglobulin; type: protein-complex assay

T1 sequence (P05556 whole entry, one chain of several): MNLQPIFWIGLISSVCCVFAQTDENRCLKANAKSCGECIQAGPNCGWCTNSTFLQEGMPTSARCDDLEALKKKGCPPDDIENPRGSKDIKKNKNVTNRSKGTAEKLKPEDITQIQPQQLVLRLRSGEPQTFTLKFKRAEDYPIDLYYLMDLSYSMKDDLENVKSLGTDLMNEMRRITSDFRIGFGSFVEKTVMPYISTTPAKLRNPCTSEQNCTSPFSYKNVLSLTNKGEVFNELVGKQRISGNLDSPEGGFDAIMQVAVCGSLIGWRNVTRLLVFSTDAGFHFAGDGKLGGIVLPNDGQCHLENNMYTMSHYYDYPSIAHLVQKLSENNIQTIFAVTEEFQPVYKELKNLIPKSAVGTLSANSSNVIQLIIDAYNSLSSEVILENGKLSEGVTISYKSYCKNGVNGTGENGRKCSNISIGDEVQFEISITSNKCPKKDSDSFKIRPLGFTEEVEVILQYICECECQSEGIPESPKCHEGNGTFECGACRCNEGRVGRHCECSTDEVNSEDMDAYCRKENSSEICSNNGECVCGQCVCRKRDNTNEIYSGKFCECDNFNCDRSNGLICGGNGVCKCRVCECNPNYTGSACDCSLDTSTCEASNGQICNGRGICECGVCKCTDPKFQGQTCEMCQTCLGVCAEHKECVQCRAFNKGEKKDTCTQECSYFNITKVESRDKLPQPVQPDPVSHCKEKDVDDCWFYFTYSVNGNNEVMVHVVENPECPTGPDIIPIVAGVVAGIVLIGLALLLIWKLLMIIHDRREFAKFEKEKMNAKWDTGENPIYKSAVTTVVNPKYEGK

Row | Structure (SMILES) | IC50 (Integrin alpha-4/beta-1 [1]) [nM] | bioavailability [2] [%] | IC50 (Integrin alpha-4/beta-1 [3]) [nM] | IC50 (Integrin alpha-4/beta-7 [4]) [nM] | Ratio [5] | clearance [6] [mL/min/kg] | Ratio [7] | IC50 (Integrin alpha-4/beta-7 [8]) [nM]
1 | COCCC[C@]1(C(=O)N[C@@H](Cc2ccc(-c3c(OC)cccc3OC)cc2)C(=O)O)CCCO1 | 0.61 | 1.9 | 0.35 | 7.8 | 22 | 81.8 | – | –
2 | COc1cccc(OC)c1-c1ccc(C[C@H](NC(=O)[C@@]2(C)CCCO2)C(=O)O)cc1 | 3.61 | 51 | 0.34 | 7.09 | 21 | 2.9 | – | –
3 | COc1ccccc1-c1ccc(C[C@H](NC(=O)[C@@]2(CC(=O)N3CCOCC3)CCCO2)C(=O)O)cc1 | – | – | 23.1 | – | – | – | 11 | 11

Reference: ChEMBL document CHEMBL1135130, “Substituted tetrahydrofuroyl-1-phenylalanine derivatives as potent and specific VLA-4 antagonists” (Bioorg Med Chem Lett, 2002)
